Values quoted from earlier work, collected in patent publication US8734826B2 (priority 2005, dated 2014).
Read-outs that look alike come from different tables or passages of the source.

Columns and labels:
anal sphincter = details: in vivo
anal fissure = details: in vivo
[1] = test system: internal anal sphincter smooth muscle
[2] = in vivo
[3] = test system: pre-synaptic cholinergic nerve terminals; details: in vivo

N=C(N)NCCC[C@H](N)C(=O)O [L-arginine]
resting anal pressure (anal sphincter): causes a reduction in resting anal pressure

CC(C[N+](C)(C)C)OC(N)=O (centres unmarked) [bethanecol]
resting anal pressure (anal sphincter): reducing resting anal pressure
healing of anal fissures (anal fissure): increased healing of anal fissures

COc1ccc([C@@H]2Sc3ccccc3N(CCN(C)C)C(=O)[C@@H]2OC(C)=O)cc1 [diltiazem]
resting anal pressure (anal sphincter): reduce resting anal pressure
resting anal pressure (anal sphincter; po): caused a reduction in resting anal pressure
fissure healing (anal fissure): results in fissure healing

O=C(NC1CCN(CCc2c[nH]c3ccccc23)CC1)c1ccccc1 [indoramin]
resting anal pressure (anal sphincter; po): reduce resting anal pressure

O=[N+]([O-])O[C@H]1CO[C@H]2[C@@H]1OC[C@H]2O[N+](=O)[O-] [isorbide dinitrate]
pain reduction and fissure healing (anal fissure): pain reduction and increased fissure healing
relaxation of internal anal sphincter smooth muscle [1]: cause a relaxation of internal anal sphincter smooth muscle

O=[N+]([O-])OCC(CO[N+](=O)[O-])O[N+](=O)[O-] [nitroglycerin]
pain reduction and fissure healing (anal fissure): pain reduction and increased fissure healing
relaxation of internal anal sphincter smooth muscle [1]: cause a relaxation of internal anal sphincter smooth muscle

CC(C)(C)NCC(O)c1ccc(O)c(CO)c1 (centres unmarked) [salbutamol]
resting anal pressure (anal sphincter): reduce resting anal pressure

Botulinum toxin
peri-anal thrombosis [2]: peri-anal thrombosis has been reported in some patients
duration of clinical weakening of the muscle [3]: 3 to 4 months
voluntary squeeze pressure (anal sphincter): reduction in voluntary squeeze pressure
fissure healing (anal fissure): healing of the fissure
pain and fissure healing (anal fissure): reduced pain and promoted fissure healing
